Tests used:
ERα [1] = molecular target: T1, ERα (Homo sapiens, UniProt P03372); assay: pS2 mRNA induction in MCF7ERαHA cells; assay type: cell-based; set-up: endogenous in cells; details: 10 μM, Dox, 100 pM E2, 24 h
T1 sequence (P03372 1-595): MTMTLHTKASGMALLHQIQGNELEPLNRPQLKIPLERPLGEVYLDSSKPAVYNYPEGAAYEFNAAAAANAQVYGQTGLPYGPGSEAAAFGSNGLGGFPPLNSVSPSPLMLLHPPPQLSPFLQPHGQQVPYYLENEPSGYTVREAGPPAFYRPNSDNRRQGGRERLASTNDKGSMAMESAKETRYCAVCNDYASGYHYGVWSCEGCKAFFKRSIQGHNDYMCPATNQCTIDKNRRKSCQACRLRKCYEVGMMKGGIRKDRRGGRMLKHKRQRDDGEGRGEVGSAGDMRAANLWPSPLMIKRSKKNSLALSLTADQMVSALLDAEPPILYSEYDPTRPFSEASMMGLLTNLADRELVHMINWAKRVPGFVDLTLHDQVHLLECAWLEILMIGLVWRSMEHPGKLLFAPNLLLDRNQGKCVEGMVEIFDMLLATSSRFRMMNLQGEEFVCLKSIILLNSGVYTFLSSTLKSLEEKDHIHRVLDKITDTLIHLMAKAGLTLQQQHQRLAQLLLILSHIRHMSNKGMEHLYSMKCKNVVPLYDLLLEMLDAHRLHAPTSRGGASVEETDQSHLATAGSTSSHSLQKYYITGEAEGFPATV
Description: A model for tamoxifen-resistant breast cancers that overexpress ERα is MCF7ERαHA cells, which is a tetracycline-inducible MCF-7 model in which doxycycline (Dox) induces overexpression of ERα (40,41). In contrast to MCF-7 cells, in these cells Tam and OHT are potent agonists (2,42) and OHT, which stabilizes ERα, induced proteinase inhibitor 9 (PI-9) mRNA and protein more effectively than E2 (2,43). MCF7ERαHA cells were maintained in 10% 6XCD-treated FBS (40,41). All cells were in 0.1% DMSO vehicle and contained the indicated concentrations of TPBM added at the same time as the E2 or OHT. To induce PI-9 mRNA, the cells were treated with 0.5 μg/ml doxycycline to induce ERα and ethanol vehicle, 100 pM E2 or 500 pM OHT for 24 h, mRNA was extracted and PI-9 mRNA levels were determined by quantitative RT-PCR as described (2).
Saturating E2 (100 pM, FIG. 7A) and OHT (500 pM, FIG. 7B) induced PI-9 mRNA by 150 and 500 fold, respectively. […] The less complete inhibition of PI-9 induction in the OHT-treated cells likely results from the ˜4 fold higher level of ERα after OHT treatment than after E2 treatment (FIG. 7C). The PI-9 gene is representative of the many genes that contain complex estrogen response elements including ERE half sites. To confirm that TPBM inhibits expression of an endogenous gene that contains a near consensus ERE we used the pS2 gene. […]

ERα [2] = molecular target: T1, ERα; assay: Endogenous PI-9 mRNA induction in MCF-7 cells (qRT-PCR); assay type: cell-based; set-up: endogenous in cells; details: 10 nM E2, read-out: IC50 for inhibition of E2-ERα induction of endogenous PI-9 mRNA (Endog. PI-9)
Procedure: Endogenous Gene Expression. MCF-7 cells or MCF7ERαHA cells were maintained for 4 days in medium containing 5% CD calf serum (MCF-7 cells) or 10% 6×CD-FBS (MCF7ERαHA cells). In assays of TPSF inhibition of PI-9 induction, cells were plated, incubated for 24 hours in the indicated concentrations of TPSF and then maintained 4 hours with and without E2, with and without TPSF. To induce ERα, MCF7ERαHA cells were also maintained in 0.5 μg/ml Dox for 24 hours prior to addition of E2 or OHT with or without TPSF. For induction of cyclin D1, 24 hours after plating the cells, E2 with and without TPSF was added, the cells were maintained for 24 hours, RNA was extracted and mRNA levels were determined by quantitative RT-PCR as described (19, 26). Actin mRNA levels were used as the qRT-PCR internal standard. The primers and sequences used in qRT-PCR were as follows.

MCF-7 cells = assay: E2-dependent growth of MCF-7 cells (MTS); assay type: cell-based, human
Procedure: (§1) Assays for Cell Growth and Viability. Cells were maintained in the media listed above containing CD-treated serum for at least 4 days prior to the experiment. To minimize cell aggregation, MCF-7 cells were harvested in 10 mM Hepes, pH 7.4, 1 mM EDTA. Other cell lines were harvested in trypsin-EDTA. 1,000 cells were plated into each well of a 96 well plate. For slow growing ZR-75 cells, 2,000 cells were plated/well. The cells were maintained in medium containing CD-treated serum for 24 hours. At 24 hours the medium was changed and E2 and DMSO vehicle or TPSF in DMSO was added. The medium was replaced after 2 days (except for BT474 cells whose medium was not changed). After 4 days viable cells were determined using a cell viability test, Promega CellTiter 96 Aqueous One Solution Cell Proliferation Assay (MTS) (Promega, Wis.).

MCF7ERαHA cells = assay: Growth of tamoxifen-resistant MCF7ERαHA cells (MTS); assay type: cell-based, human; details: 5 μM, Dox, 1 pM E2, 4 days
Procedure: FIG. 19 illustrates that TPSF, but not OHT, is capable of inhibiting E2-ERα-dependent growth of tamoxifen-resistant breast cancer cells as measured in MCF7ERαHA cells. MCF7ERαHA cells were maintained for 4 days in 6× stripped CD-FBS, seeded into 12 well plates containing or lacking Dox (0.5 μg/ml), E2 (1 pM) OHT (5 μM) and TPSF (5 μM), grown for 4 days and assayed using MTS with a standard curve for cell number. Cells in ethanol and DMSO vehicle alone were set to 100%. Data represents the average of 3 experiments±SEM. The difference between the cells incubated with TPSF+E2+Dox compared to the cells in Dox, and E2 and to the cells in Dox, E2 and OHT was significant (P<0.05 using Student's two-tailed T test).
as §1, with “At 24 hours the medium was changed and E2 and DMSO vehicle or TPSF in DMSO was added. The medium was replaced after 2 days (except for BT474 cells whose medium was not changed).” left out

| Structure (SMILES) | reduction of induction of pS2 mRNA (ERα [1]) [%] | induction of pS2 mRNA (ERα [1]; 24±3 fold without TPBM) [fold] | IC50 (ERα [2]) [nM] | effect on E2-dependent growth of MCF-7 cells (MCF-7 cells; 7.5 μM) | IC50 (MCF-7 cells; Homo sapiens, MCF7, 96 h, 1 pM E2, 4 days, MTS, read-out: IC50 for inhibition of E2-dependent growth of MCF-7 cells) [nM] | effect on E2-ERα-dependent growth of MCF7ERαHA cells (MCF7ERαHA cells) |
| --- | --- | --- | --- | --- | --- | --- |
| Cn1c(=O)c2nc(CSCc3ccccc3)[nH]c2n(C)c1=O [Compound 95910, 8-Benzylsulfanylmethyl-1,3-dimethyl-3,7-dihydro-purine-2,6-dione] | 50 | 12±2 |  |  |  |  |
| Cn1c(=S)c2[nH]c(SCCCC(=O)c3ccc(F)cc3)nc2n(C)c1=O [TPSF, Butyrophenone, p-fluoro-4-(1,2,3,6,-tetrahydro-1,3-dimethyl-2-oxo-6-thionopurin-8-ylthio)] |  |  | 200 | completely blocked | 2000 | inhibited |

Source: patent US8871751B2, “Compositions and methods relating to nuclear hormone and steroid hormone receptors including inhibitors of estrogen receptor alpha-mediated gene expression and inhibition of breast cancer” (The Board of Trustees of the University of Illinois, priority 2008, dated 2014)
